Results taken from US4840947A, “Antiinflammatory and analgesic piperidin-4-yl-tetracyclic benzodiazepines and use thereas” (Hoechst-Roussel Pharmaceuticals, Inc., priority 1986, dated 1989).
Like-named read-outs stand apart in the source and are kept apart here.

Legend:
[1] = tested on: 2-phenyl-1,4-benzoquinone induced writhing in mice; assay: Phenylquinone Induced Writhing in Mice (2-phenyl-1,4-benzoquinone, analgesia); format: in vivo, mouse; conditions: for ED50: Mus musculus, sc, read-out: ED50, inhibition of phenylquinone induced writhing; for Percent Inhibition of phenylquinone induced writhing: at 20 mg/kg
[2] = tested on: carrageenan-induced rat paw edema; assay: Inhibition of Carrageenan-Induced Rat Paw Edema; format: in vivo; conditions: for Percent Inhibition of carrageenan-induced rat paw edema: at 100 mg/kg, p.o.; for ED50: po
[3] = tested on: adjuvant-induced polyarthritis in rats; assay: Adjuvant-Induced Polyarthritis In Rats; format: in vivo, rat (male Charles River-Wistar Lewis); conditions: rat, p.o.; for ED50: po; for percent inhibition of paw volume, adjuvant-treated paw / percent inhibition of paw volume, non-injected paw: at 50 mg/kg
Procedure: This activity was measured by a procedure similar to that described by C.
Groups of 10 male Charles River-Wistar Lewis rats weighing 150 to 175 g were individually housed and maintained on a regular rat chow diet. Water was given ad libitum. The adjuvant was prepared by suspending 75 mg of Mycobacterium butyricum (Difco Laboratories, Detroit, Mich.) in 10 ml of white paraffin oil with continuous stirring for 2 hours at room temperature prior to administration. Test compounds are prepared by suspending the drug in water, adding one drop of Tween 80 per 10 ml of suspension, and homogenizing. The adjuvant suspension (0.1 ml) was injected into the footpad of the left hind paw of the rat. Test compound suspensions were administered orally (10 ml/kg) the day before adjuvant suspension injection and the administration was continued for 21 days. One group of ten rats was used for the test drug. Standard, adjuvant-injected control and non-injected control groups are run along with the test drug. Control animals received vehicle (10 ml/kg). Three doses of test drug and one dose of standard preparation were used. Injected and non-injected paw volumes were determined on the day the adjuvant suspension was given, and on subsequent days thereafter (usually days 5, 10, 18, and 21) by the method of C. A. Winter, et al., Proc. Soc.
The percent inhibition of paw volume (injected and non-injected hind paw) was calculated by the following formula: [formula]

[4] = adjuvant-treated (injected) paw, read-out: ED50 (50% inhibition of paw volume), adjuvant-treated paw
[5] = non-injected paw, read-out: ED50 (50% inhibition of paw volume), non-injected paw
[6] = adjuvant-treated (injected) paw

| Structure (SMILES) | Percent Inhibition of carrageenan-induced rat paw edema [2] | ED50 [3, 4] | ED50 [3, 5] | Percent Inhibition of phenylquinone induced writhing ([1]; mice, s.c.) | other results |
| --- | --- | --- | --- | --- | --- |
| CN1CCC(C2c3cccc4c3N(CC4)c3ccccc3N2C=O)CC1.O=CO (stereo not shown) [7-Formyl-6-(1-methylpiperidin-4-yl)-1,2,6,7-tetrahydrobenzo[b]pyrrolo[3,2,1-jk][1,4]benzodiazepine formate] |  |  |  |  | ED50 ([1]; mice, s.c.): 0.9 mg/kg |
| CN1CCC(C2c3cccc4c3N(CC4)c3ccccc3N2C)CC1 (stereo not shown) [7-Methyl-6-(1-methylpiperidin-4-yl)-1,2,6,7-tetrahydrobenzo[b]pyrrolo[3,2,1-jk][1,4]benzodiazepine] |  |  |  |  | ED50 ([1]; mice, s.c.): 2.6 mg/kg |
| CN1CCC(C2Nc3cc(Br)ccc3N3CCc4cccc2c43)CC1 (stereo not shown) [9-Bromo-6-(1-methylpiperidin-4-yl)-1,2,6,7-tetrahydrobenzo[b]pyrrolo[3,2,1-jk][1,4]benzodiazepine] | 40% | 112 mg/kg | 3.6 mg/kg |  |  |
| CCCCC1C(=O)N(c2ccccc2)N(c2ccccc2)C1=O [Phenylbutazone, reference compound] |  | 14 mg/kg | 9.4 mg/kg |  | ED50 [2]: 50 mg/kg |
| CCO.CN1CCC(C2Nc3ccccc3N3CCc4cccc2c43)CC1.O=C(O)/C=C/C(=O)O (stereo not shown) [6-(1-Methylpiperidin-4-yl)-1,2,6,7-tetrahydrobenzo[b]pyrrolo[3,2,1-jk][1,4]benzodiazepine fumarate ethanolate] |  | 73.6 mg/kg | 18.5 mg/kg | 51% | ED50 [2]: 41.5 mg/kg |
| CCC(=O)O[C@](Cc1ccccc1)(c1ccccc1)[C@H](C)CN(C)C [Propoxyphene, reference compound] |  |  |  |  | ED50 [1]: 3.9 mg/kg |
| CN1CCC(C2c3cccc4c3N(CC4)c3ccccc3N2C(=O)OCC(Cl)(Cl)Cl)CC1 (stereo not shown) [6-(1-Methylpiperidin-4-yl)-1,2,6,7-tetrahydrobenzo[b]pyrrolo[3,2,1-jk][1,4]benzodiazepine-7-carboxylic acid, 2,2,2-trichloroethyl ester] | 44% |  |  |  |  |
| CCO.CN1CCC(C2Nc3ccccc3N3CCc4cc(Br)cc2c43)CC1 (stereo not shown) [4-Bromo-6-(1-methylpiperidin-4-yl)-1,2,6,7-tetrahydrobenzo[b]pyrrolo[3,2,1-jk][1,4]benzodiazepine ethanolate] |  |  |  | 47% |  |
| CN1CCC(C2Nc3cc(F)ccc3N3CCc4cccc2c43)CC1 (stereo not shown) [9-Fluoro-6-(1-methylpiperidin-4-yl)-1,2,6,7-tetrahydrobenzo[b]pyrrolo[3,2,1-jk][1,4]benzodiazepine] |  |  |  | 35% | percent inhibition of paw volume, adjuvant-treated paw [3, 6]: 48%; percent inhibition of paw volume, non-injected paw ([3]; non-injected paw): 116% |
| CN1CCC(C2Nc3ccccc3N3CCCc4cccc2c43)CC1 (stereo not shown) [7-(1-Methyl-4-piperidinyl)-2,3,7,8-tetrahydro-1H-quino[1,8-ab][1,5]benzodiazepine hemifumarate hemihydrate] | 21% |  |  | 27% | percent inhibition of paw volume, adjuvant-treated paw [3, 6]: 39%; percent inhibition of paw volume, non-injected paw ([3]; non-injected paw): 79% |
